Test results from paper PMC12736120, “First-in-Human Phase I Clinical Trial of SLC-391, a Novel and Selective AXL Inhibitor, in Patients with Advanced Solid Tumours” (Pharmaceuticals, 2025).

Assay: Phase I safety and tolerability (DLTs, adverse events, laboratory, ECG)
Type: in vivo
Conditions: for dose-limiting toxicity (DLT): one subject; for Any treatment-related adverse event (TRAE) / TRAE: Decreased appetite / TRAE: Diarrhoea / TRAE: Dysgeusia / TRAE: Fatigue / TRAE: Gastrointestinal disorders / TRAE: General disorders and administration site conditions / TRAE: Metabolism and nutrition disorders / TRAE: Nausea / TRAE: Nervous system disorders / TRAE: Vomiting: Definitely related; for Any treatment-emergent adverse event (TEAE) / TEAE: Abdominal distension / TEAE: Abdominal pain / TEAE: Back pain / TEAE: Blood and lymphatic system disorders / TEAE: Chills / TEAE: Constipation / TEAE: Cough / TEAE: Decreased appetite / TEAE: Diarrhoea / TEAE: Dizziness / TEAE: Dysgeusia / TEAE: Dyspnoea / TEAE: Fatigue / TEAE: Gastrointestinal disorders / TEAE: General disorders and administration site conditions / TEAE: Haematuria / TEAE: Headache / TEAE: Infections and infestations / TEAE: Investigations / TEAE: Metabolism and nutrition disorders / TEAE: Musculoskeletal and connective tissue disorders / TEAE: Nausea / TEAE: Nervous system disorders / TEAE: Oedema peripheral / TEAE: Psychiatric disorders / TEAE: Pyrexia / TEAE: Renal and urinary disorders / TEAE: Respiratory, thoracic, and mediastinal disorders / TEAE: Skin and subcutaneous tissue disorders / TEAE: Vomiting / TEAE: Weight decreased: Grade 1
Method: This study employed a standard 3 + 3 dose escalation design with a starting dose of 25 mg QD. […] Dose escalation decisions took into account all available data from evaluable subjects as well as PK and the safety profile of prior dose cohorts. […] There was a minimum 5-day stagger between dosing of the first and second subjects in each dose cohort. Dose escalation decisions were made by a data review committee (DRC) composed of, at minimum, the medical monitor, at least one principal investigator, and a sponsor representative, per the study DRC Plan. Dose escalation could continue until 2 or more subjects in the same dose cohort experienced a dose-limiting toxicity (DLT). DLTs were defined as Grade 3 or 4 adverse drug reactions (ADRs), with grades as defined in the National Cancer Institute Common Toxicity Criteria for Adverse Events (NCI-CTCAE) version 5.0. […] The MTD was defined as the highest dose at which no more than 1 of 6 subjects experienced a DLT during cycle 1 of the study drug. The MTD would have been exceeded if 2 or more subjects in a dose cohort of up to 6 subjects experienced a DLT. Subjects could continue treatment until disease progression, unacceptable toxicity, death, withdrawal of consent, or loss to follow-up.
Before enrolment in the study, all patients received a detailed medical history and physical examination. Clinical laboratory evaluations included clinical chemistry, complete blood count, urinalysis, coagulation factors, and a lipid panel. Other safety assessments included vital signs, physical examination, electrocardiogram, and echocardiogram with multigated acquisition (ECHO/MUGA). Safety assessments were performed on days 1, 8, 15, and 21 of cycle 1, and on day 1 of cycles 2 to 6.

SMILES: Nc1ncc(-c2cnn(C3CCNCC3)c2)cc1-c1nnc(CC2CC2)o1 [SLC-391, 3-(5-[cyclopropylmethyl]-1,3,4-oxadiazol-2-yl)-5-(1-[piperidin-4-yl]-1H-pyrazol-4-yl)-pyridin-2-amine]
- subjects with SAEs (110 mg BID (1/3)): 33.3%
- TEAEs leading to drug withdrawal or study discontinuation (150 mg BID): 16.7%
- subjects reporting Grade 3 TEAEs (150 mg BID): 50.0%
- DLTs and SAEs (150 mg BID (N = 6)): no DLTs or SAEs
- subjects reporting constipation (150 mg BID (N = 6)): 66.7%
- subjects reporting diarrhoea (150 mg BID (N = 6)): 66.7%
- subjects reporting dyspnoea (150 mg BID (N = 6)): 50.0%
- subjects reporting fatigue (150 mg BID (N = 6)): 83.3%
- subjects reporting nausea (150 mg BID (N = 6)): 83.3%
- subjects with SAEs (150 mg QD (3/6)): 50%
- subjects with SAEs (175 mg QD (1/2)): 50%
- dose-limiting toxicity (DLT) (175 mg QD (N = 2), SUSAR): Grade 3 haematochezia
- TEAEs leading to drug withdrawal or study discontinuation (200 mg BID): 66.7%
- subjects reporting Grade 3 TEAEs (200 mg BID): 66.7%
- subjects reporting constipation (200 mg BID (N = 3)): 66.7%
- subjects reporting decreased appetite (200 mg BID (N = 3)): 66.7%
- subjects reporting diarrhoea (200 mg BID (N = 3)): 66.7%
- subjects reporting dysgeusia (200 mg BID (N = 3)): 66.7%
- subjects reporting fatigue (200 mg BID (N = 3)): 66.7%
- subjects reporting headache (200 mg BID (N = 3)): 66.7%
- subjects reporting nausea (200 mg BID (N = 3)): 100.0%
- dose-limiting toxicity (DLT) (200 mg BID): Grade 3 thrombocytopenia associated with Grade 1 haematuria
- subjects with interrupted dosing who continued at a reduced dose (2/9 subjects): 22.2%
- maximum tolerated dose (MTD) (25-175 mg QD, 75-200 mg BID, 21-day cycles): not reached
- SAEs, subjects (BID cohorts): 6.7%
- TEAEs leading to treatment interruption or missed dose (BID cohorts): 40.0%
- TEAEs leading to treatment or study discontinuation, subjects (BID cohorts): 20.0%
- subjects with Grade 3 TEAEs (BID cohorts): 40.0%
- subjects with TRAEs (BID cohorts): 86.7%
- subjects with at least one TEAE (BID cohorts): 100.0%
- Any treatment-related adverse event (TRAE) (Overall BID (N = 15)): 5 (33.3%) n (%)
- TRAE: Decreased appetite (Overall BID (N = 15)): 2 (13.3%) n (%)
- TRAE: Diarrhoea (Overall BID (N = 15)): 2 (13.3%) n (%)
- TRAE: Dysgeusia (Overall BID (N = 15)): 1 (6.7%) n (%)
- TRAE: Fatigue (Overall BID (N = 15)): 1 (6.7%) n (%)
- TRAE: Gastrointestinal disorders (Overall BID (N = 15)): 5 (33.3%) n (%)
- TRAE: General disorders and administration site conditions (Overall BID (N = 15)): 1 (6.7%) n (%)
- TRAE: Metabolism and nutrition disorders (Overall BID (N = 15)): 2 (13.3%) n (%)
- TRAE: Nausea (Overall BID (N = 15)): 4 (26.7%) n (%)
- TRAE: Nervous system disorders (Overall BID (N = 15)): 1 (6.7%) n (%)
- TRAE: Vomiting (Overall BID (N = 15)): 3 (20.0%) n (%)
- Any treatment-related adverse event (TRAE) (Overall QD (N = 20)): 7 (35.0%) n (%)
- TRAE: Decreased appetite (Overall QD (N = 20)): 2 (10.0%) n (%)
- TRAE: Diarrhoea (Overall QD (N = 20)): 5 (25.0%) n (%)
- TRAE: Dysgeusia (Overall QD (N = 20)): 1 (5.0%) n (%)
- TRAE: Fatigue (Overall QD (N = 20)): 3 (15.0%) n (%)
- TRAE: Gastrointestinal disorders (Overall QD (N = 20)): 6 (30.0%) n (%)
- TRAE: General disorders and administration site conditions (Overall QD (N = 20)): 3 (15.0%) n (%)
- TRAE: Metabolism and nutrition disorders (Overall QD (N = 20)): 2 (10.0%) n (%)
- TRAE: Nausea (Overall QD (N = 20)): 4 (20.0%) n (%)
- TRAE: Nervous system disorders (Overall QD (N = 20)): 1 (5.0%) n (%)
- TRAE: Vomiting (Overall QD (N = 20)): 5 (25.0%) n (%)
- Any treatment-related adverse event (TRAE) (Overall Study (N = 35)): 12 (34.3%) n (%)
- TRAE: Decreased appetite (Overall Study (N = 35)): 4 (11.4%) n (%)
- TRAE: Diarrhoea (Overall Study (N = 35)): 7 (20.0%) n (%)
- TRAE: Dysgeusia (Overall Study (N = 35)): 2 (5.7%) n (%)
- TRAE: Fatigue (Overall Study (N = 35)): 4 (11.4%) n (%)
- TRAE: Gastrointestinal disorders (Overall Study (N = 35)): 11 (31.4%) n (%)
- TRAE: General disorders and administration site conditions (Overall Study (N = 35)): 4 (11.4%) n (%)
- TRAE: Metabolism and nutrition disorders (Overall Study (N = 35)): 4 (11.4%) n (%)
- TRAE: Nausea (Overall Study (N = 35)): 8 (22.9%) n (%)
- TRAE: Nervous system disorders (Overall Study (N = 35)): 2 (5.7%) n (%)
- TRAE: Vomiting (Overall Study (N = 35)): 8 (22.9%) n (%)
- Any treatment-emergent adverse event (TEAE) (Overall BID (N = 15)): 2 (13.3) n (%)
- TEAE: Abdominal distension (Overall BID (N = 15)): 2 (13.3) n (%)
- TEAE: Abdominal pain (Overall BID (N = 15)): 0 n (%)
- TEAE: Back pain (Overall BID (N = 15)): 0 n (%)
- TEAE: Blood and lymphatic system disorders (Overall BID (N = 15)): 1 (6.7) n (%)
- TEAE: Chills (Overall BID (N = 15)): 4 (26.7) n (%)
- TEAE: Constipation (Overall BID (N = 15)): 5 (33.3) n (%)
- TEAE: Cough (Overall BID (N = 15)): 2 (13.3) n (%)
- TEAE: Decreased appetite (Overall BID (N = 15)): 1 (6.7) n (%)
- TEAE: Diarrhoea (Overall BID (N = 15)): 6 (40.0) n (%)
- TEAE: Dizziness (Overall BID (N = 15)): 0 n (%)
- TEAE: Dysgeusia (Overall BID (N = 15)): 0 n (%)
- TEAE: Dyspnoea (Overall BID (N = 15)): 0 n (%)
- TEAE: Fatigue (Overall BID (N = 15)): 4 (26.7) n (%)
- TEAE: Gastrointestinal disorders (Overall BID (N = 15)): 7 (46.7) n (%)
- TEAE: General disorders and administration site conditions (Overall BID (N = 15)): 5 (33.3) n (%)
- TEAE: Haematuria (Overall BID (N = 15)): 3 (20.0) n (%)
- TEAE: Headache (Overall BID (N = 15)): 3 (20.0) n (%)
- TEAE: Infections and infestations (Overall BID (N = 15)): 1 (6.7) n (%)
- TEAE: Investigations (Overall BID (N = 15)): 2 (13.3) n (%)
- TEAE: Metabolism and nutrition disorders (Overall BID (N = 15)): 0 n (%)
- TEAE: Musculoskeletal and connective tissue disorders (Overall BID (N = 15)): 2 (13.3) n (%)
- TEAE: Nausea (Overall BID (N = 15)): 7 (46.7) n (%)
- TEAE: Nervous system disorders (Overall BID (N = 15)): 3 (20.0) n (%)
- TEAE: Oedema peripheral (Overall BID (N = 15)): 1 (6.7) n (%)
- TEAE: Psychiatric disorders (Overall BID (N = 15)): 1 (6.7) n (%)
- TEAE: Pyrexia (Overall BID (N = 15)): 2 (13.3) n (%)
- TEAE: Renal and urinary disorders (Overall BID (N = 15)): 3 (20.0) n (%)
- TEAE: Respiratory, thoracic, and mediastinal disorders (Overall BID (N = 15)): 2 (13.3) n (%)
- TEAE: Skin and subcutaneous tissue disorders (Overall BID (N = 15)): 2 (13.3) n (%)
- TEAE: Vomiting (Overall BID (N = 15)): 5 (33.3) n (%)
- TEAE: Weight decreased (Overall BID (N = 15)): 2 (13.3) n (%)
- Any treatment-emergent adverse event (TEAE) (Overall QD (N = 20)): 1 (5.0) n (%)
- TEAE: Abdominal distension (Overall QD (N = 20)): 2 (10.0) n (%)
- TEAE: Abdominal pain (Overall QD (N = 20)): 4 (20.0) n (%)
- TEAE: Back pain (Overall QD (N = 20)): 1 (5.0) n (%)
- TEAE: Blood and lymphatic system disorders (Overall QD (N = 20)): 0 n (%)
- TEAE: Chills (Overall QD (N = 20)): 2 (10.0) n (%)
- TEAE: Constipation (Overall QD (N = 20)): 5 (25.0) n (%)
- TEAE: Cough (Overall QD (N = 20)): 4 (20.0) n (%)
- TEAE: Decreased appetite (Overall QD (N = 20)): 6 (30.0) n (%)
- TEAE: Diarrhoea (Overall QD (N = 20)): 8 (40.0) n (%)
- TEAE: Dizziness (Overall QD (N = 20)): 4 (20.0) n (%)
- TEAE: Dysgeusia (Overall QD (N = 20)): 1 (5.0) n (%)
- TEAE: Dyspnoea (Overall QD (N = 20)): 2 (10.0) n (%)
- TEAE: Fatigue (Overall QD (N = 20)): 6 (30.0) n (%)
- TEAE: Gastrointestinal disorders (Overall QD (N = 20)): 8 (40.0) n (%)
- TEAE: General disorders and administration site conditions (Overall QD (N = 20)): 7 (35.0) n (%)
- TEAE: Haematuria (Overall QD (N = 20)): 1 (5.0) n (%)
- TEAE: Headache (Overall QD (N = 20)): 2 (10.0) n (%)
- TEAE: Infections and infestations (Overall QD (N = 20)): 0 n (%)
- TEAE: Investigations (Overall QD (N = 20)): 5 (25.0) n (%)
- TEAE: Metabolism and nutrition disorders (Overall QD (N = 20)): 5 (25.0) n (%)
- TEAE: Musculoskeletal and connective tissue disorders (Overall QD (N = 20)): 5 (25.0) n (%)
- TEAE: Nausea (Overall QD (N = 20)): 8 (40.0) n (%)
- TEAE: Nervous system disorders (Overall QD (N = 20)): 8 (40.0) n (%)
- TEAE: Oedema peripheral (Overall QD (N = 20)): 2 (10.0) n (%)
- TEAE: Psychiatric disorders (Overall QD (N = 20)): 2 (10.0) n (%)
- TEAE: Pyrexia (Overall QD (N = 20)): 2 (10.0) n (%)
- TEAE: Renal and urinary disorders (Overall QD (N = 20)): 0 n (%)
- TEAE: Respiratory, thoracic, and mediastinal disorders (Overall QD (N = 20)): 3 (15.0) n (%)
- TEAE: Skin and subcutaneous tissue disorders (Overall QD (N = 20)): 4 (20.0) n (%)
- TEAE: Vomiting (Overall QD (N = 20)): 8 (40.0) n (%)
- TEAE: Weight decreased (Overall QD (N = 20)): 4 (20.0) n (%)
- Any treatment-emergent adverse event (TEAE) (Overall Study (N = 35)): 3 (8.6) n (%)
